Laboratory results reported in PubChem BioAssay (NCI).
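Five concentrations, 48 hours, 96-well plates. GI50: concentration for 50% inhibition of growth. The concentration for full growth arrest is given as TGI.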

Key:
Test in all cases: inhibition of tumour cell growth, NCI panel, 48 h
UACC-62 melanoma = test system: UACC-62 melanoma
NCI-H522 lung = test system: NCI-H522 lung
HCT-15 colon = test system: HCT-15 colon
MALME-3M melanoma = test system: MALME-3M melanoma
BT-549 breast = test system: BT-549 breast
MDA-MB-231 breast = test system: MDA-MB-231 breast
UACC-257 melanoma = test system: UACC-257 melanoma
SF-268 CNS = test system: SF-268 CNS
SNB-75 CNS = test system: SNB-75 CNS
CAKI-1 renal = test system: CAKI-1 renal

Structure (SMILES)	GI50 (UACC-62 melanoma) [µM]	TGI (UACC-62 melanoma) [µM]	GI50 (NCI-H522 lung) [µM]	TGI (NCI-H522 lung) [µM]	GI50 (HCT-15 colon) [µM]	TGI (HCT-15 colon) [µM]	GI50 (MALME-3M melanoma) [µM]	TGI (MALME-3M melanoma) [µM]	GI50 (BT-549 breast) [nM]	TGI (BT-549 breast) [µM]	GI50 (MDA-MB-231 breast) [µM]	TGI (MDA-MB-231 breast) [µM]	GI50 (UACC-257 melanoma) [µM]	TGI (UACC-257 melanoma) [µM]	GI50 (SF-268 CNS) [µM]	TGI (SF-268 CNS) [µM]	TGI (SNB-75 CNS) [µM]	TGI (CAKI-1 renal) [µM]	GI50 (SNB-75 CNS) [µM]	GI50 (CAKI-1 renal) [µM]
O=C(CC(Cl)=C(Cl)Cl)Nc1ccccc1	> 100	> 100	> 100	> 100	> 100	> 100	> 100	> 100	> 100000	> 100	> 100	> 100	> 100	> 100	> 100	> 100				
CN(C)C=Nc1ccn(CCO)c(=O)n1		> 100		> 100		> 100		> 100						> 100		> 100	> 100			
Cn1cc(C(=O)c2ccccc2)c2ccccc2c1=O		> 100		> 100		> 100		> 100						> 100		> 100	> 100	> 100		
C=C1CC[C@@H]2[C@](C)(COC(C)=O)[C@H](OC(C)=O)CC[C@@]2(C)[C@@H]1CC(Nc1ccc(S(=O)(=O)NC(C)=O)cc1)C1=CCOC1=O (some centres undefined)	2.59	10.8	1.44	4.42	1.53	4.36			2320	7.93	3.32	11.6	6.82	16	8.78	20.5	12.7	11.2	3.08	3.31
O=C(Cc1ccc(/C=C/C(=O)c2ncc[nH]2)cc1)Nc1ccc(F)cc1	5.92	22.6	3.38	9.42	1.15	7.37	7.86	22.1	2730	11.3	1.83	10.3	8.67	30.6	5.1	26.3	> 33.3		11.1	
COc1cc(Nc2nc3cc(N)cc(N)c3nc2-c2ccccc2)cc(OC)c1OC	13.6	31.8	18.2	53.1	15.3	45.4	13	28.2	16800	33.6	11.1	29.2	29.6	> 100	18.1	60.8		48.5		15.5
Nc1ncnc2c1ncn2[C@]1(CO)C=C(CO)C(O)C1O (some centres undefined)				> 100		> 100		> 100						> 100		> 100	> 100	> 100		
COc1ccc(C2=C(Cl)c3cc(OC)c(OC)cc3C2OC)cc1OC (centres undefined)		> 100		> 100		> 100		> 100						> 100		> 100	> 100	> 100		
Cn1c2c(c3ccccc31)CCN(CCCCN1CCCCC1)C2=O		66		> 100		> 100								> 100		> 100		> 100		
N#CCCN(c1ccc(C=Nc2ccccc2)cc1)S(=O)(=O)c1ccccc1		> 100		> 100				> 100						> 100		> 100	> 100	> 100		
Cc1cc(S(=O)(=O)Nc2nc3ccccc3o2)c(SCc2ccccc2)cc1Cl	28.7	79.5	> 100	> 100	21.5	52.8			30500	79.3	35.9	90.5	21.2	50.2	18.9	47.7	90.8	47.3	38.6	19.6
O=C(NCCCCCCCCCCCCNC(=O)c1cccc2ccccc12)c1cccc2ccccc12		> 100		> 100		> 100		> 100						> 100		> 100	> 54.6	68.2		
CN(CCN1C(=O)c2cc([N+](=O)[O-])cc3cc([N+](=O)[O-])cc(c23)C1=O)CCN1C(=O)c2cc([N+](=O)[O-])cc3cc([N+](=O)[O-])cc(c23)C1=O		3.8		1.86		8.65		4.31						9.42		> 100	> 100	0.618		
c1ccc([P+](CCSCCSCC[P+](c2ccccc2)(c2ccccc2)c2ccccc2)(c2ccccc2)c2ccccc2)cc1		> 100				> 100				> 100		> 100		> 100		> 100	> 100			
CS(=O)(=O)Nc1cncc(-c2ccc3ncnc(Nc4ccc(F)c(Cl)c4)c3c2)c1	2.22	11.8	1.01	4.1	3.66	16	2.08	13.6	1900	7.98	2.92	17.6	4.59	23	2.63	18.7	6.92		0.434	
CC1=Nc2ccccc2S/C1=C(/C)NNS(=O)(=O)c1ccc(C)cc1		> 100		> 100		> 100		> 100						> 100		> 100	> 100	> 100		
CN1C(=O)CCC1(O)C1C=CC=CC1 (centres undefined)		> 100		> 100		> 100		> 100						> 100		> 100	> 100	> 100		
COc1ccc(C/C(=N/O)C(=O)NCCc2cc(Br)c(OCCCN(C)C)c(Br)c2)cc1Br				31.5				44.6						30.6		39.4	55	69.4		
